Test results taken from patent publication US5639469A, “Transmucosal delivery system” (Minnesota Mining and Manufacturing Company, priority 1994, dated 1997).
Where two headings read alike, the source gives them in different places.

What was measured:
[1] = In vivo rat model: plasma anti Xa after buccal dosing of gel; design: species or system rat (Wistar preferred); conditions: Gel Formulation 11
Protocol: The in vivo delivery of heparinic anticoagulant from a gel is determined using a rat model.
This method uses rats of 220 to 500 grams in weight. Wistar rats are the preferred strain. The rats are anesthetized with ether and then a 2 cm vertical incision is made first through the skin and then through the underlying muscle. The esophagus is isolated and tied off with a surgical ligature. The incision is closed with a surgical stapler. After surgery the rats are dosed with the gel by syringe administration with half of the total dose in each cheek. The rats are slightly reanesthesized for dosing and blood withdrawal. Blood samples are withdrawn at 0, 1, 2, 3 and 4 hours post dose. Heparinic anticoagulant concentrations in plasma are determined by an enzymatic method measuring anti Xa using a test kit (Stachrom™ Heparin from Diagnostica Stago, 9 rue des Freres Chausson, 92600 Asnieres-sur Seine, France). Results are reported as the number of anti Xa units per mL of plasma.
A formulation was prepared according to the method set forth above in connection with Gel Formulation 1, except that the sodium dodecyl sulfate was eliminated and the penetration enhancers shown in Table 15 below were incorporated at 2, 5 and/or 10 percent by weight based on the total weight of the gel formulation. Low molecular weight heparin (mean molecular weight from 3450 to 4950 daltons with anti Xa of 65 to 144 units/mg, Bioiberica, Barcelona, Spain) was incorporated at concentrations of 10, 25 and 50 mg of heparin per mL of gel. In vivo delivery was determined using the rat model described above. Each rat was dosed with 0.2 mL of gel formulation to provide the dose of heparin shown in Table 15, wherein "n" designates the number of rats studied. The values obtained were used to calculate the promoting effect (P for each formulation. The promoting effect was calculated using the equation given below: [formula] where: Cmax (H) is equal to the maximal anti Xa activity in plasma after heparin administration without enhancer and Cmax (H+E) is equal to the maximal anti Xa activity in plasma after heparin administration with the enhancer. The results are shown in Table 15 below.

Xa = conditions: cited from earlier work
[2] = enhancer 5 wt%, heparin 5 mg/rat

CCCCCCCCCCCCCCCC(=O)OC(CC(=O)O)C[N+](C)(C)C (racemic) [Palmitoyl DL carnitine chloride]
promoting effect (P %) ([1]; enhancer 10 wt%, heparin 10 mg/rat): +142%

C[C@H](CCC(=O)NCCC[N+](C)(C)CCCS(=O)(=O)[O-])[C@H]1CC[C@H]2[C@@H]3[C@H](O)C[C@@H]4C[C@H](O)CC[C@]4(C)[C@H]3C[C@H](O)[C@]12C [CHAPS]
promoting effect (P %) [1, 2]: +2%

O=C1CCCN1 [Pyrrolidone]
promoting effect (P %) [1, 2]: -31%

C[C@H](CCC(=O)O)[C@H]1CC[C@H]2[C@@H]3CC[C@@H]4C[C@H](O)CC[C@]4(C)[C@H]3C[C@H](O)[C@]12C [Sodium deoxycholate]
promoting effect (P %) ([1]; enhancer 2 wt%, heparin 5 mg/rat): +117% | promoting effect (P %) [1, 2]: +122%

CCCCCCCCCCCCOS(=O)(=O)[O-].[Na+] [Sodium dodecyl sulfate]
promoting effect (P %) [1, 2]: +189%

Low molecular weight heparin
anti Xa (Xa; mean molecular weight 3450 daltons, Bioiberica): 138 units/mg | anti Xa (Xa; mean molecular weight 5300 daltons, Bioiberica): 144 units/mg | anti Xa (Xa; molecular weight 3949, Bioiberica): 113 units/mg
